Laboratory results: patent publication US9315491B2 (DEVELOPMENT CENTER FOR BIOTECHNOLOGY, priority 2009, dated 2016)

biological target: PI3K (p110α/p85α) (Homo sapiens (Human), UniProt P42336); assay: PI3K HTRF enzyme assay, p110α/p85α; type: biochemical; conditions: read-out: % inhibition @ 500 nM p110α; compound at 500 nM, 10 μM ATP
Procedure: Recombinant PI3K (p110α/p85α) and PI3K (p110β/p85α) were from Millipore. […] Briefly, the compounds of interest dissolved in 100% DMSO were dispensed in all wells, following which the mixture of PIP2 and enzyme was added. PI3K (p110α/p85α) and PI3K (p110β/p85α) enzyme reactions were initiated in the presence of 10 μM and 100 μM ATP, respectively, and incubated for 30 min at room temperature. STOP solution prepared 2 hours prior to use was added to stop reactions, and mixed well. Detection solution prepared 2 hours prior to use was added, and incubated at room temperature for 17 hours in the dark. […] HTRF ration was calculated as follows: […]

Sequence of PI3K (p110α/p85α) (P42336 whole entry, species assumed): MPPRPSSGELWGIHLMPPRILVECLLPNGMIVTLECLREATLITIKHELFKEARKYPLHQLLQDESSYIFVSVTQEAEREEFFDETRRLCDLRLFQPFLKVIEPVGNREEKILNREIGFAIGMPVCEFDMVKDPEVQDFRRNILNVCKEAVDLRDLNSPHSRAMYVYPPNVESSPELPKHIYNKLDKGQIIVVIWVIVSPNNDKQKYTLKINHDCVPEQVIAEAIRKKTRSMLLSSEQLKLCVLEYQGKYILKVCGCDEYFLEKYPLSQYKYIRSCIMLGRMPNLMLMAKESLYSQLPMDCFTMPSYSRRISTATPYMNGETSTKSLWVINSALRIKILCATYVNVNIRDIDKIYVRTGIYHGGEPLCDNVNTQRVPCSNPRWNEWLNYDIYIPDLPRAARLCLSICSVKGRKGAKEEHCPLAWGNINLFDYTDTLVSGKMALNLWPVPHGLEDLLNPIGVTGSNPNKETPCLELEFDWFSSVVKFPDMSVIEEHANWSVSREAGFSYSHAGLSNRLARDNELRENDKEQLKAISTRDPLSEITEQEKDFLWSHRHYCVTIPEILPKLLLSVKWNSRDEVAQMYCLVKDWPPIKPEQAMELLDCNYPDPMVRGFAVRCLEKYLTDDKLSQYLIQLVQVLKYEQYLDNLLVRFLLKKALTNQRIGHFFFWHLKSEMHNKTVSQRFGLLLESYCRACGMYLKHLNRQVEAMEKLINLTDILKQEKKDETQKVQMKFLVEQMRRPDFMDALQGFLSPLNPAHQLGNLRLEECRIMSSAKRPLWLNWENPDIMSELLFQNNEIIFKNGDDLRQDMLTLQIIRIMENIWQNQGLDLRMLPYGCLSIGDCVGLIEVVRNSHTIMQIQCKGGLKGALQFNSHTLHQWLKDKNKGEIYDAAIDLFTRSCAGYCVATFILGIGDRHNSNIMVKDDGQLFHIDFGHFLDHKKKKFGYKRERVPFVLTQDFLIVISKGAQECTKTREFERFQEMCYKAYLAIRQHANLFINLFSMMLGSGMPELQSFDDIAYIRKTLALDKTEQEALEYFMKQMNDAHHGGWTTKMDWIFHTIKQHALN
Sequence of PI3K (p110α/p85α) (P27986 whole entry partner, species assumed): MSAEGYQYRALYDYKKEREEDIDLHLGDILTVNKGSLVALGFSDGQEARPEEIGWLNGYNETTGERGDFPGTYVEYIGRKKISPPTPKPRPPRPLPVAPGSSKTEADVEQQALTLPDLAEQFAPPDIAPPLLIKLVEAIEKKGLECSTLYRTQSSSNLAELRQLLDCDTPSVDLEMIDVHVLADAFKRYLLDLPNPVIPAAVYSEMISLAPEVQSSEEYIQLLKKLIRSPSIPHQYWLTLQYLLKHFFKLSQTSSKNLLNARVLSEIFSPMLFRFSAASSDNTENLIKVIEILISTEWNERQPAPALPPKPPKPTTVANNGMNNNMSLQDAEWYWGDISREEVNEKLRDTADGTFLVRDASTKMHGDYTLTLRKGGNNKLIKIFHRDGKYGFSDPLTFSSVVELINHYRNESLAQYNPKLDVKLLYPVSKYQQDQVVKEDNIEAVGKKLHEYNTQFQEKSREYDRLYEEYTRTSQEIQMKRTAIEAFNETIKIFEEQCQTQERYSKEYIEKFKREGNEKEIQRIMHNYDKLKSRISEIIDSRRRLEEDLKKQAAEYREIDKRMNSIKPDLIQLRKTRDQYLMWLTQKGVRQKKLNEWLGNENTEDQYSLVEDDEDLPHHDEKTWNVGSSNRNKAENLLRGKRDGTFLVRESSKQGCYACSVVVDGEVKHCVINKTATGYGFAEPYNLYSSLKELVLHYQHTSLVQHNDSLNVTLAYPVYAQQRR

In order of falling inhibition at 0.5 µM:
1. COc1cnc(-c2ccc(NC(=O)Nc3ccc(N4CCOCC4)c(F)c3)cc2)nc1N1CCOCC1 [MTR-0242, 1-(3-Fluoro-4-morpholin-4-yl-phenyl)-3-[4-(5-methoxy-4-morpholin-4-yl-pyrimidin-2-yl)-phenyl]-urea]  96.3%
2. CSc1c(Cl)nc(-c2ccc(NC(=O)Nc3ccc(C(N)=O)cc3)cc2)nc1N1CCOCC1 [MTR-0257, 4-{3-[4-(4-Chloro-5-methylsulfanyl-6-morpholin-4-yl-pyrimidin-2-yl)-phenyl]-ureido}-benzamide]  95.5%
3. COc1cnc(-c2ccc(NC(=O)Nc3ccc(N4CCOCC4=O)cc3)cc2)nc1N1CCOCC1 [MTR-0241, 1-[4-(5-Methoxy-4-morpholin-4-yl-pyrimidin-2-yl)-phenyl]-3-[4-(3-oxo-morpholin-4-yl)-phenyl]-urea]  94.8%
4. CSc1c(Cl)nc(-c2ccc(NC(=O)Nc3ccc(C(=O)N4CCN(C)CC4)cc3)cc2)nc1N1CCOCC1 [MTR-0271, 1-[4-(4-Chloro-5-methylsulfanyl-6-morpholin-4-yl-pyrimidin-2-yl)-phenyl]-3-[4-(4-methyl-piperazine-1-carbonyl)-phenyl]-urea]  94.5%
5. CSc1cnc(-c2ccc(NC(=O)Nc3ccc(N4CCOCC4=O)cc3)cc2)nc1N1CCOCC1 [MTR-0227, 1-[4-(5-Methylsulfanyl-4-morpholin-4-yl-pyrimidin-2-yl)-phenyl]-3-[4-(3-oxo-morpholin-4-yl)-phenyl]-urea]  87%
6. CSc1cnc(-c2ccc(NC(=O)Nc3ccc(C(N)=O)cc3)cc2)nc1N1CCOCC1 [MTR-0267, 4-{3-[4-(5-Methylsulfanyl-4-morpholin-4-yl-pyrimidin-2-yl)-phenyl]-ureido}-benzamide]  83.7%
7. COc1cnc(-c2ccc(NC(=O)Nc3cccnc3)cc2)nc1N1CCOCC1 [MTR-0228, 1-[4-(5-Methoxy-4-morpholin-4-yl-pyrimidin-2-yl)-phenyl]-3-pyridin-3-yl-urea]  74.4%
8. CSc1c(Cl)nc(-c2ccc(NC(=O)Nc3ccc(N4CCN(C)CC4)nc3)cc2)nc1N1CCOCC1 [MTR-0236, 1-[4-(4-Chloro-5-methylsulfanyl-6-morpholin-4-yl-pyrimidin-2-yl)-phenyl]-3-[6-(4-methyl-piperazin-1-yl)-pyridin-3-yl]-urea]  61.2%
9. CCOC(=O)c1nc(-c2ccc(NC(=O)Nc3ccc(C(N)=O)cc3)cc2)nc(N2CCOCC2)c1OCC [MTR-0244, 2-{4-[3-(4-Carbamoyl-phenyl)-ureido]-phenyl}-5-ethoxy-6-morpholin-4-yl-pyrimidine-4-carboxylic acid ethyl ester]  60%
10. COc1cnc(-c2ccc(NC(=O)Nc3ccc(N4CCOCC4)cc3)cc2)nc1N1CCOCC1 [MTR-0261, 1-[4-(5-Methoxy-4-morpholin-4-yl-pyrimidin-2-yl)-phenyl]-3-(4-morpholin-4-yl-phenyl)-urea]  58.4%
11. COc1cnc(-c2ccc(NC(=O)Nc3ccc(N4CCSCC4)cc3)cc2)nc1N1CCOCC1 [MTR-0262, 1-[4-(5-Methoxy-4-morpholin-4-yl-pyrimidin-2-yl)-phenyl]-3-(4-thiomorpholin-4-yl-phenyl)-urea]  56.3%
12. CSc1cnc(-c2ccc(NC(=O)Nc3ccc(N4CCOCC4)cc3)cc2)nc1N1CCOCC1 [MTR-0248, 1-[4-(5-Methylsulfanyl-4-morpholin-4-yl-pyrimidin-2-yl)-phenyl]-3-(4-morpholin-4-yl-phenyl)-urea]  45.8%
13. CSc1cnc(-c2ccc(NC(=O)Nc3ccc(N4CCOCC4)c(F)c3)cc2)nc1N1CCOCC1 [MTR-0226, 1-(3-Fluoro-4-morpholin-4-yl-phenyl)-3-[4-(5-methylsulfanyl-4-morpholin-4-yl-pyrimidin-2-yl)-phenyl]-urea]  45.7%
14. CSc1cnc(-c2ccc(NC(=O)Nc3cccnc3)cc2)nc1N1CCOCC1 [MTR-0225, 1-[4-(5-Methylsulfanyl-4-morpholin-4-yl-pyrimidin-2-yl)-phenyl]-3-pyridin-3-yl-urea]  43.8%
